# Laboratory results as given in patent US20020197244A1, “Compositions and methods for regulating phagocytosis and ICAM-1 expression” (priority 1998, published 2002).
# Legend:
# Type in all cases: cell-based
# [1] = system: Human PMN cells; test: PMN chemotactic migration towards FMLP, Boyden chamber
# Description: Since ICAM-1 is involved in cell migration, cell migration towards a chemotactic peptide was studied in cells treated with Compound I and STI. Human PMN cells were placed in one side of a Boyden chamber, using standard techniques, and a chemotactic peptide (FMLP) was placed in the other chamber. Cells were allowed to migrate into the second chamber, and the number of migrating cells per field and distance of migration were calculated. The experiment was repeated with PMN cells pretreated with one of the following: 5 or 0.5 mg/ml STI, 1 or 0.1 μM Compound I, a buffer vehicle, and with and without chemotactic peptide. The number of cells per field that migrated the same distance as the untreated control was measured. Without the peptide and with no treatment, an average of 19 cells/field were migrating a distance of 80 microns. […] In other words, no cells (or less than 5/field) were identified at 115 microns. […] The ability to inhibit PMN migration is an important constituent of anti-inflammatory compounds.
# [2] = system: melanocyte cultures plated under epidermal equivalents (EpiDerm); test: Pigmentation in equivalent-monolayer co-culture (no K-M contact); conditions: no keratinocyte-melanocyte contact
# Description: (§1) Since PAR-2 is expressed in keratinocytes, but not in melanocytes, the possible requirement of keratinocyte-melanocyte contact was tested for the effect of Compound I and SLIGRL on melanosome phagocytosis by the keratinocytes. Primary melanocyte cultures (commercially available from Clonetics, San Diego) were plated under epidermal equivalents (EpiDerm, of MatTek, Ashland, Mass.) to create an equivalent-monolayer co-culture with no contact between keratinocytes and melanocytes. These co-cultures were compared to MelanoDerm equivalents (of MatTek), where melanocytes are present in the basal layer of the equivalent. Cultures were treated with Compound I, with the […], and with the PAR-2 agonist SLIGRL. As set forth in Table 3, keratinocytes are indicated by “K”, melanocytes are indicated by “M”, and lack of keratinocyte-melanocyte contact is indicated as “no K-M cont”. […] The same result was also observed with monolayer keratinocyte/melanocyte co-cultures having keratinocyte/melanocyte contact.
# [3] = system: MelanoDerm equivalents; test: Pigmentation in melanocyte-containing epidermal equivalents; conditions: keratinocyte-melanocyte contact
# Description: as §1
# [4] = system: monolayer keratinocyte/melanocyte co-cultures; test: Pigmentation in monolayer keratinocyte/melanocyte co-cultures (K-M contact); conditions: keratinocyte-melanocyte contact
# Description: as §1
Substance,Migration (distance) ([1]; buffer without peptide: 80 μ),"Cells/Field ([1]; cells counted at 115 microns, PMN pretreated with 5 or 0.5 mg/ml STI or 1 or 0.1 μM Compound I, buffer without FMLP: 19 at 80 μ)","level of pigmentation, Equivalent Monolayer Co-culture (no K-M cont.) [2]","level of pigmentation, Epidermal Equivalents (K-M cont.) [3]","level of pigmentation, Mono-Layer Co-Cultures (K-M cont.) [4]"
FMLP [reference compound],115 μ,41 cells/field,,,
TFLLRNPNDK [printed as PAR-2 agonist],,,no effect,no effect,no effect
